The values that follow come from PubChem BioAssay AID624285 (Broad Institute, 2012).

“And” between values parts separate entries of the source, which are not always exact repeats. Equal values may be shown once. The source made the active and inactive calls.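 How the source made its calls: active means signal-decreasing dose-response curve whose fitted half-maximal concentration is at or below twice the highest valid tested dose; inconclusive means flat fit at 30 to 70% signal loss, or poor fit; inactive means the rest.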

The nature of the assay: cell viability loss after compound exposure – 24 h, luminescence, cherry-picked samples, cytotoxicity control for PDI inhibitor project, dose response (AID 624285). The settings on record: NIH3T3/HeLa viability, CellTiter-Glo ATP luminescence, 24 h. A general note: In ATP-based viability assays light output follows the ATP content of the culture.

As to `CCC1Nc2ncnc(N3CCCCC3)c2N(Cc2ccc(C)cc2)C1=O` (centres undefined), under “at 35 µM (top of the series)”, the activity change, negative = cytotoxicity is -16.7% (inactive).

For `Cc1noc(C)c1S(=O)(=O)Nc1ccc2c(c1)CC(=O)N([C@H](C)CO)C[C@@H](C)[C@H](CN(C)S(=O)(=O)c1ccc(F)cc1)O2`, the activity change, negative = cytotoxicity (at 35 µM (top of the series)) was 4.61% (inactive).

In the case of `CCc1nc2ccc(C(=O)N(CC)CC(=O)Nc3c(F)cccc3F)cc2nc1CC`, where the note is “at 35 µM (top of the series)”, the activity change, negative = cytotoxicity was -5.83% (inactive).

As to `Cc1cc(Cl)ccc1OCc1n[nH]c(=S)n1C1CCCCC1`, the activity change, negative = cytotoxicity (at 35 µM (top of the series)) is -11% (inactive).

For the compound `CC(=O)c1ccc(N2CCN(C(=O)c3ccc4[nH]c(C)c(C)c4c3)CC2)cc1`, under “at 35 µM (top of the series)”, the activity change, negative = cytotoxicity was -9.89% (inactive).

Consider `COc1ccc(N(Cc2cc3cc(OC)ccc3[nH]c2=O)C(=O)C2CCCO2)cc1` (centres undefined), for which the activity change, negative = cytotoxicity (at 35 µM (top of the series)) was -10.5% (inactive).

Consider `CSc1cccc(NC(=O)CN(C)S(=O)(=O)c2ccc(F)cc2)c1`, for which the activity change, negative = cytotoxicity (at 35 µM (top of the series)) is -8.11% (inactive).

Consider `CCC(=O)Nc1ccc(-c2cc3ccccc3oc2=O)cc1`, for which the activity change, negative = cytotoxicity (at 35 µM (top of the series)) is -7.54% (inactive).

Regarding `C[C@@H]1CN([C@@H](C)CO)C(=O)c2cccc(NS(C)(=O)=O)c2O[C@H]1CN(C)Cc1ccc(Oc2ccccc2)cc1`, the activity change, negative = cytotoxicity (at 35 µM (top of the series)) is -11.5% (inactive) and -6.47% (inactive).

Take `COc1ccc(/C(C)=N/NC(=O)CNC(=O)c2cccs2)cc1`: the activity change, negative = cytotoxicity (at 35 µM (top of the series)) was -6.13% (inactive).

In the case of `Clc1cccc(OCCCN2CCCC2)c1Cl`, the activity change, negative = cytotoxicity (at 35 µM (top of the series)) was -17% (inactive).

Turning to `O=C1CCC(=O)N1CCc1c[nH]c2ccccc12`, the activity change, negative = cytotoxicity (at 35 µM (top of the series)) was -6.09% (inactive).

Take `Cc1ccc(-n2ncc3c(=O)[nH]c(SCC(=O)N4CCCc5ccccc54)nc32)cc1`: under “at 35 µM (top of the series)”, the activity change, negative = cytotoxicity is -1.87% (inactive).

Turning to `O=c1c(O[C@H]2O[C@@H](CO)[C@H](O)[C@@H](O)[C@@H]2O)c(-c2ccc(O)cc2)oc2cc(O)cc(O)c12`, for the setting “at 35 µM (top of the series)”, the activity change, negative = cytotoxicity was -3.13% (inactive).

As to `CC1CC(C)CN(C(=O)COC(=O)c2ccc[nH]c2=O)C1` (centres undefined), the activity change, negative = cytotoxicity (at 35 µM (top of the series)) is -4.68% (inactive).

Consider `C[C@H](CO)N1C[C@H](C)[C@H](CN(C)Cc2ccc(Oc3ccccc3)cc2)Oc2c(NS(C)(=O)=O)cccc2C1=O`, for which the activity change, negative = cytotoxicity (at 35 µM (top of the series)) was -6.82% (inactive).

Regarding `C[C@H]1CN([C@@H](C)CO)C(=O)c2cc(NC(=O)Cc3cn(C)c4ccccc34)ccc2O[C@H]1CN(C)S(=O)(=O)c1ccc(F)cc1`, the activity change, negative = cytotoxicity (at 35 µM (top of the series)) was -5.48% (inactive).

For the compound `O=C(N/N=C/c1cccc([N+](=O)[O-])c1)c1cnccn1`, the activity change, negative = cytotoxicity (at 35 µM (top of the series)) is -7.37% (inactive).

Take `COCC(=O)NC1(c2nnnn2CCOC(=O)Nc2ccc(Cl)cc2)CCCCC1`: where the note is “at 35 µM (top of the series)”, the activity change, negative = cytotoxicity is -7.94% (inactive).

In the case of `COc1ccc(CN(C)C[C@@H]2Oc3ccc(NC(=O)Nc4ccccc4)cc3CC(=O)N([C@H](C)CO)C[C@@H]2C)cc1`, the activity change, negative = cytotoxicity (at 30 µM (top of the series)) is -5.13% (inactive).

Turning to `O=C(Nc1ccccc1)c1cc(C2CCCCN2C(=O)c2ccccc2)on1` (centres undefined), the activity change, negative = cytotoxicity (at 35 µM (top of the series)) was -15.5% (inactive).

Regarding `Cc1cc(NC(=O)COC(=O)C2CC(=O)N(c3ccccc3)C2)no1` (centres undefined), the activity change, negative = cytotoxicity (at 35 µM (top of the series)) is -2.55% (inactive).

On to `Cc1ccc(CN(c2ccc(C(=O)Nc3ccc4c(c3)OCO4)cc2)S(C)(=O)=O)cc1`, for which the activity change, negative = cytotoxicity (at 35 µM (top of the series)) was -9.66% (inactive).

As to `NC(=O)CSc1nnc([C@@H](N)Cc2c[nH]c3ccccc23)o1`, the activity change, negative = cytotoxicity (at 35 µM (top of the series)) is -10.6% (inactive).

As for `O=C(c1cc([N+](=O)[O-])ccc1N1CCOCC1)N1CCN(c2ccc([N+](=O)[O-])cc2)CC1`, the activity change, negative = cytotoxicity (at 35 µM (top of the series)) is -16.5% (inactive).

For the compound `C[C@@H]1CN([C@@H](C)CO)C(=O)c2cccc(NS(C)(=O)=O)c2O[C@@H]1CN(C)Cc1ccc(Oc2ccccc2)cc1`, where the note is “at 35 µM (top of the series)”, the activity change, negative = cytotoxicity is -5.95% (inactive).

As to `NC(=O)c1nsc(C(=O)N(CC(=O)NCc2ccc(F)cc2)Cc2ccco2)c1N`, the activity change, negative = cytotoxicity (at 35 µM (top of the series)) is -24.6% (inactive).

Regarding `CNC[C@@H]1Oc2c(NS(C)(=O)=O)cccc2C(=O)N([C@@H](C)CO)C[C@H]1C`, the activity change, negative = cytotoxicity (at 35 µM (top of the series)) is 1.39% (inactive).

As for `C=CCNc1ncnc2c1ncn2[C@H]1CN(Cc2cccc3ccccc23)C[C@@H](CO)O1`, the activity change, negative = cytotoxicity (at 35 µM (top of the series)) is -8.26% (inactive).

On to `O=C(O)CCCCCn1c(SCC(=O)c2ccc(O)c(O)c2)nc2ccsc2c1=O`, for which, where the note is “at 35 µM (top of the series)”, the activity change, negative = cytotoxicity is -10.6% (inactive).

Turning to `CCc1ccc(NC(=O)Nc2ccncc2)cc1`, the activity change, negative = cytotoxicity (at 35 µM (top of the series)) is -3.55% (inactive).

Take `C[C@@H]1CN([C@@H](C)CO)C(=O)c2cc(NC(=O)Cc3cn(C)c4ccccc34)ccc2O[C@H]1CN(C)S(=O)(=O)c1ccc(F)cc1`: the activity change, negative = cytotoxicity (at 35 µM (top of the series)) was 3.15% (inactive).

With `C[C@@H]1O[C@@H](O[C@H]2[C@H](O)[C@@H](O)[C@H](Oc3c(-c4ccc(O)c(O)c4)oc4cc(O)cc(O)c4c3=O)O[C@@H]2CO)[C@H](O)[C@H](O)[C@H]1O`, the activity change, negative = cytotoxicity (at 35 µM (top of the series)) is 1.36% (inactive).

Turning to `CCCNC(=O)c1cccc(COc2ccccc2OC)c1`, the activity change, negative = cytotoxicity (at 35 µM (top of the series)) is -6.42% (inactive).
